Measurements taken from publication PMC7497679, “Structure-based design, synthesis, and evaluation of the biological activity of novel phosphoroorganic small molecule IAP antagonists” (Investigational New Drugs, 2020).
Like-named read-outs stand apart in the source and are kept apart here.

Tests used:
cIAP1 = biological target: T1, cIAP1 (Homo sapiens, UniProt Q13490); experiment: Western blot analysis of cIAP1 autoubiquitination and proteasomal degradation in MDA-MB-231 cells; assay type: cell-based; conditions: 10 µM, 15 and 120 min
T1 construct: induce autoubiquitination and degradation of cIAP1 in MDA-MB-231 breast cancer cells; endogenous in cells; host or cells: MDA-MB-231
Method: Prior to Western blot sample collection, cells were harvested by trypsinization, counted and seeded on 50 mm Petri dishes. After overnight incubation, the culture medium was replaced with fresh medium containing the tested compounds at the target concentration ranges with 0.1% (v/v) DMSO as a control. Next, the cells were washed with PBS and lysed with ice-cold RIPA buffer containing protease and phosphatase inhibitors (Sigma-Aldrich, Poznań, Poland), and after debris removal (4 °C, 15 min, 16,000 × g), the lysates were used in further experiments.
MDA-MB-231 cell lysates (25 µg of total protein/lane) were resolved by SDS-PAGE (4–12%, Tris-glycine, reducing conditions) and transferred onto a nitrocellulose membrane (0.45 µm pore size; Thermo Scientific, Gdańsk, Poland) using the semi-dry blotting system (Cleaver Scientific, Rugby, UK). The membrane was washed with 10 mM PBS (pH 7.4; 5 min, r.t.) and blocked with 5% skim milk in PBS supplemented with 0.05% Tween-20 (PBST) for 1 h at r.t. Subsequently, the membrane was washed with PBST (3 times for 5 min, r.t.) and incubated with rabbit anti-cIAP1 monoclonal IgG (1:1,000 in 0.5% skim milk in PBST; 4 °C, overnight; Cell Signaling Technology, Warszawa, Poland, Cat# 7065, D5G9). […]

XIAP BIR3 domain = biological target: T2, XIAP BIR3 domain (Homo sapiens, UniProt P98170); experiment: Fluorescence polarization inhibition (competition) assay; assay type: binding; conditions: for inhibition at 50 µM: 0.5 h, antagonist 50 µM, inhibition of protein-probe interaction; for Ki / EC50: XIAP BIR3 50 nM, fluorescent probe 4 2 nM
T2 construct: fluorescent probe 4 and the XIAP BIR3 domain (Sino Biological, Beijing, China) were used for all measurements; purchased Sino Biological, Beijing, China
How it was run: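 BIR3 protein (50 nM) preincubated 15 min at r.t. with compound (50 μM to 0.0537 nM), then fluorescent probe 4 (2 nM) added and polarization read 30 min later (ex 484, em 528 nm). Phosphate buffer pH 7.5 with γ-globulin, NaN3, 1.4% DMSO; duplicates. EC50 from variable-slope fit, converted to Ki.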

T2 sequence (P98170 252-356 limits assumed): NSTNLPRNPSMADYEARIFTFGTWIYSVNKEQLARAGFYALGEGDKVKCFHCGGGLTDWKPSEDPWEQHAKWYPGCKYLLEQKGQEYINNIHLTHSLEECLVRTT
T1 sequence (Q13490 whole entry): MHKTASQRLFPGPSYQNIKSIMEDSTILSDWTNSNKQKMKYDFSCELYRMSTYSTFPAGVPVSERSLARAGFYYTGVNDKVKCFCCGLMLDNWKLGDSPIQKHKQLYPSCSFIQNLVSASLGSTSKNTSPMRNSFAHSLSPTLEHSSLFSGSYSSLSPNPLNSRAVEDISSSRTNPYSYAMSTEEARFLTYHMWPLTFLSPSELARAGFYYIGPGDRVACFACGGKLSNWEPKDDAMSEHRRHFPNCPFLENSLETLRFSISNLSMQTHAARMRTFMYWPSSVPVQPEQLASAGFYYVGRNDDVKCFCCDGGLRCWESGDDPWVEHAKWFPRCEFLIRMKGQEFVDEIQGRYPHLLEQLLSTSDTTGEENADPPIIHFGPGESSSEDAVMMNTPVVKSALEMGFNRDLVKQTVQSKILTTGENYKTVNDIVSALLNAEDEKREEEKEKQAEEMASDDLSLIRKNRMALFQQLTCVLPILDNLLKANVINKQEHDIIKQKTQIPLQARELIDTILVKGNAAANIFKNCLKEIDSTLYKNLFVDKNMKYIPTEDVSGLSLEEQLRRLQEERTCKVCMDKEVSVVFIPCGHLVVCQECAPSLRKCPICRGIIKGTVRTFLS

SMILES	induction of autoubiquitination and degradation of cIAP1 (cIAP1)	inhibition at 50 µM (XIAP BIR3 domain) [%]	Ki (XIAP BIR3 domain) [nM]	EC50 (XIAP BIR3 domain; read-out: EC50) [nM]	EC50 (XIAP BIR3 domain; read-out: log EC50 (converted)) [nM]
CN[C@@H](C)C(=O)N[C@H](C(=O)N1CCC[C@H]1C(=O)NC(Cc1ccccc1)P(=O)(Oc1ccccc1)Oc1ccccc1)C(C)C (stereo partly drawn) [Compound 41, diphenyl (1-((S)-1-((S)-3-methyl-2-((S)-2-(methylamino)propanamido)butanoyl)pyrrolidine-2-carboxamido)-2-phenylethyl)phosphonate]	greatest ability to induce cIAP1 degradation	100	50	130	131
CN[C@@H](C)C(=O)N[C@H](C(=O)N1CCC[C@H]1C(=O)NC(Cc1ccccc1)P(=O)(Oc1ccccc1)Oc1ccccc1)C1CCCCC1 (stereo partly drawn) [Compound 42, diphenyl (1-((S)-1-((S)-2-cyclohexyl-2-((S)-2-(methylamino)propanamido)acetyl)pyrrolidine-2-carboxamido)-2-phenylethyl)phosphonate]	greatest ability to induce cIAP1 degradation	100	350	740	738
